Reference: ChEMBL document CHEMBL5223082, “Alkyl-Aryl-Vancomycins: Multimodal Glycopeptides with Weak Dependence on the Bacterial Metabolic State” (J Med Chem, 2021)
Activity calls are given as the source filed them. The calls are words filed in the database; no cut-off is given here.

How the values were obtained:
[1] = molecular target: T1, Septum site-determining protein MinD (Bacillus subtilis (strain 168)) (UniProt Q01464); assay: Delocalization of GFP tagged-MinD in Bacillus subtilis 168 at MIC incubated for 15 mins by fluorescence microscopy
T1 sequence (whole entry): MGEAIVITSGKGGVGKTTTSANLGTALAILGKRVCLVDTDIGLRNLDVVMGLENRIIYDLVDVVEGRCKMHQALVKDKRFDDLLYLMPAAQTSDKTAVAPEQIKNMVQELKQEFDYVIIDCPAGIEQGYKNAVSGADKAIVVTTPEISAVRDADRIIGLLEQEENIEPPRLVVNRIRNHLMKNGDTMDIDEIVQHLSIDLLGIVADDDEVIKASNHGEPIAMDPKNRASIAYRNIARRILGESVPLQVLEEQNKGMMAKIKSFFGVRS

Bacillus subtilis = assay: Antibacterial activity against Bacillus subtilis 168 assessed as concentration that requires for bacterial growth retardation measured for every 30 mins; type: functional
Staphylococcus aureus [2] = assay: Antibacterial activity against stationary phase of Methicillin-resistant Staphylococcus aureus ATCC 33591 assessed as log reduction in bacterial colonies at 9 uM incubated for 24 hrs in broth solution followed by incubation on agar plate for 48 hrs by spot plating method; type: functional; settings: time 72 hrs
Staphylococcus aureus [3] = assay: Antibacterial activity against Methicillin-resistant Staphylococcus aureus ATCC 33591 assessed as inhibition of bacterial growth preincubated compound with teichoic-acid for 1 hr followed by incubation with bacterial culture for 18 to 24 hrs by CLSI microbroth dilution method; type: functional; settings: time 19-25 hrs
[4] = Cytotoxicity against human HEK293 cells assessed as cell viability at 0.5 to 30 uM incubated for 24 hrs by AlamarBlue assay; type: toxicity, cell-based; settings: dose 0.5-30 µM, read-out: Activity
[5] = Renal toxicity in mouse assessed as plasma creatinine level at 12 mg/kg, ip measured after 48 hrs; type: organism-based; settings: in vivo
Staphylococcus aureus [6] = assay: Antibacterial activity against Vancomycin-resistant Staphylococcus aureus 1 assessed as inhibition of bacterial growth incubated for 18 to 24 hrs by CLSI microbroth dilution method; type: functional; settings: time 18-24 hrs
Cell membrane [7] = assay: Induction of cytoplasmic membrane depolarization in Vancomycin-resistant Enterococci assessed as increase in fluorescence intensity at 10 uM measured for 35 to 40 mins by DiSC3(5) dye based fluorescence analysis; type: subcellular; settings: Enterococcus, time 35-40 min
Staphylococcus aureus [8] = assay: Antibacterial activity against stationary phase of Methicillin-resistant Staphylococcus aureus ATCC 33591 assessed as log reduction in bacterial colonies at 9 uM incubated for 12 hrs in broth solution followed by incubation on agar plate for 48 hrs by spot plating method; type: functional; settings: time 60 hrs
Staphylococcus aureus [9] = assay: Antibiofilm activity against Methicillin-resistant Staphylococcus aureus ATCC 33591 assessed as log reduction in bacterial viability within the biofilms at 20 uM incubated for 24 hrs in broth solution followed by culturing on agar plate for 24 hrs by spot plating method; type: functional; settings: time 48 hrs
Staphylococcus aureus [10] = assay: Potency index, ratio of Vancomycin MIC to test compound MIC for antibacterial activity against Vancomycin-resistant Staphylococcus aureus 12; type: functional
[11] = Induction of hemolysis in human erythrocytes incubated for 1 hr by microtiter plater reader analysis; type: toxicity, cell-based, Erythrocyte
[12] = molecular target: T1, Septum site-determining protein MinD (Bacillus subtilis (strain 168)); assay: Delocalization of GFP tagged-MinD in Bacillus subtilis 168 at PEC incubated for 15 mins by fluorescence microscopy
Staphylococcus aureus [13] = assay: Antibacterial activity against stationary phase of Methicillin-resistant Staphylococcus aureus ATCC 33591 assessed as log reduction in bacterial colonies at 22 uM incubated for 24 hrs in broth solution followed by incubation on agar plate for 48 hrs by spot plating method; type: functional; settings: time 72 hrs
Cell membrane [14] = assay: Induction of cytoplasmic membrane depolarization in Methicillin-resistant Staphylococcus aureus ATCC 33591 assessed as increase in fluorescence intensity at 10 uM measured for 35 to 40 mins by DiSC3(5) dye based fluorescence analysis; type: subcellular; settings: time 35-40 min
[15] = Toxicity in BALB/c mouse assessed as animal's survival rate at 55.5 mg/kg, ip measured for 14 days; type: organism-based; settings: in vivo, time 14 day
Staphylococcus aureus [16] = assay: Bactericidal activity against methicillin-resistant Staphylococcus aureus ATCC 33591 assessed as log reduction in bacterial colonies incubated for 2 hrs in broth solution followed by culturing for 24 hrs on agar plate by spot plating method; type: functional; settings: time 26 hrs
Staphylococcus aureus [17] = assay: Antibacterial activity against Methicillin-resistant Staphylococcus aureus ATCC 33591 assessed as inhibition of bacterial growth preincubated compound with N,N'-diacetyl-L-Lys-D-Ala-D-Ala for 10 mins followed by incubation with bacterial culture for 18 to 24 hrs by CLSI microbroth dilution method; type: functional; settings: time 1090-1450 min
Staphylococcus aureus [18] = assay: Antibacterial activity against Methicillin-resistant Staphylococcus aureus ATCC 33591 infected in BALB/c mouse thigh infection model assessed as log reduction in bacterial load at 12 mg/kg, ip starting at 1 hr post-infection and measured at 24 hrs post-drug treatment; type: functional
Staphylococcus aureus [19] = assay: Bactericidal activity against methicillin-resistant Staphylococcus aureus ATCC 33591 assessed as eradication of viable bacterial cells at 4XMIC incubated for 6 hrs in broth solution followed by culturing for 24 hrs on agar plate by spot plating method; type: functional; settings: time 30 hrs
Enterococcus [20] = assay: Antibacterial activity against Vancomycin-resistant Enterococci NR30909 assessed as inhibition of bacterial growth incubated for 18 to 24 hrs by CLSI microbroth dilution method; type: functional; settings: time 18-24 hrs
Enterococcus [21] = assay: Antibacterial activity against Vancomycin-resistant Enterococci NR30903 assessed as inhibition of bacterial growth incubated for 18 to 24 hrs by CLSI microbroth dilution method; type: functional; settings: time 18-24 hrs
Staphylococcus aureus [22] = assay: Antibacterial activity against Methicillin-resistant Staphylococcus aureus ATCC 33591 persister cells assessed as log reduction in bacterial colonies at 4.5 uM incubated for 24 hrs in broth solution followed by incubation on agar plate for 48 hrs by spot plating method; type: functional; settings: time 72 hrs
Enterococcus [23] = assay: Bactericidal activity against Vancomycin-resistant Enterococci assessed as log reduction in bacterial colonies at 4XMIC incubated for 6 hrs in broth solution followed by culturing for 24 hrs on agar plate by spot plating method; type: functional; settings: time 30 hrs
Staphylococcus aureus [24] = assay: Antibacterial activity against Methicillin-resistant Staphylococcus aureus ATCC 33591 persister cells assessed as log reduction in bacterial colonies at 9 uM incubated for 24 hrs in broth solution followed by incubation on agar plate for 48 hrs by spot plating method; type: functional; settings: time 72 hrs
Enterococcus [25] = assay: Bactericidal activity against Vancomycin-resistant Enterococci assessed as log reduction in bacterial colonies at MIC incubated for 24 hrs in broth solution followed by culturing for 24 hrs on agar plate by spot plating method; type: functional; settings: time 48 hrs
[26] = Toxicity in BALB/c mouse assessed as animal's survival rate at 55.5 mg/kg, iv measured for 14 days; type: organism-based; settings: in vivo, time 14 day
Staphylococcus aureus [27] = assay: Antibacterial activity against Methicillin-resistant Staphylococcus aureus ATCC 33591 assessed as inhibition of bacterial growth incubated for 18 to 24 hrs in presence of 50% human liver homogenate by CLSI microbroth dilution method; type: functional; settings: ATCC 33591, Liver, time 18-24 hrs
Staphylococcus aureus [28] = assay: Antibiofilm activity against Methicillin-resistant Staphylococcus aureus ATCC 33591 assessed as bacterial biofilm thickness at 20 uM incubated for 24 hrs by confocal laser scanning microscopy (reference value: 8 micrometer); type: functional
Staphylococcus aureus [29] = assay: Antibacterial activity against Methicillin-resistant Staphylococcus aureus ATCC 33591 assessed as log reduction in bacterial colonies at 10XMIC incubated for 1 hr in broth solution followed by plating on nutrient agar plate; type: functional

Work on `CCCCCCCCCCNC(=O)C[N+](C)(C)CCCNC(=O)c1ccc(CN[C@@]2(C)C[C@H](O[C@H]3[C@H](Oc4c5cc6cc4Oc4ccc(cc4Cl)[C@@H](O)[C@@H](NC(=O)[C@@H](CC(C)C)NC)C(=O)N[C@@H](CC(N)=O)C(=O)N[C@H]6C(=O)N[C@H]4C(=O)N[C@H](C(=O)N[C@H](C(=O)O)c6cc(O)cc(O)c6-c6cc4ccc6O)[C@H](O)c4ccc(c(Cl)c4)O5)O[C@H](CO)[C@@H](O)[C@@H]3O)O[C@@H](C)[C@H]2O)cc1` yielded an Activity [1] of 25%, an EC (Bacillus subtilis) of 0.06 µM and an Activity (Staphylococcus aureus [2]) of 2.4 log10CFU/ml. It also gave an MIC (Staphylococcus aureus [3]) of 0.9 µM, a viability at 24 h, up to 30 µM [4] of 100% and an Activity [5] of 0.38 mg/dL. For the same compound, the MIC (Staphylococcus aureus [6]) was 1.8 µM, the Activity (Cell membrane [7]) was “Active” and the Activity (Staphylococcus aureus [8]) was 1.9 log10CFU/ml. The Activity (Staphylococcus aureus [9]) was 2.2 log10CFU/ml, the Ratio (Staphylococcus aureus [10]) was 1384 and the HC50 at 1 h [11] was over 250 µM. For the same compound, the Activity [12] was “inactive”, the Activity (Staphylococcus aureus [13]) was 7 log10CFU/ml and the Activity (Cell membrane [14]) was “Active”. It also gave a survival at 336 h [15] of 100%, an Activity (Staphylococcus aureus [16]) of 2 log10CFU/ml and an MIC (Staphylococcus aureus [17]) of 0.9 µM. It also gave an Activity (Staphylococcus aureus [18]) of 2.8 log10CFU/g, an Activity (Staphylococcus aureus [19]) of 100% and an MIC (Enterococcus [20]) of 0.9 µM. The MIC (Enterococcus [21]) was 0.45 µM, the Activity (Staphylococcus aureus [22]) was 3.3 log10CFU/ml and the Activity (Enterococcus [23]) was 0.5 log10CFU/ml. The Activity (Staphylococcus aureus [24]) was 6 log10CFU/ml, the Activity (Enterococcus [25]) was 0.7 log10CFU/ml and the survival at 336 h [26] was 100%. It also gave an MIC (Staphylococcus aureus [27]) of 0.9 µM, an Activity (Staphylococcus aureus [28]) of 3.5 um and an Activity (Staphylococcus aureus [29]) of 0.8 log10CFU/ml.
